From article PMC5218480 (PLoS ONE, 2017)

System: MV-4-11 cells
Assay: Gene expression microarray analysis (Affymetrix PrimeView) and GSEA
Type: cell-based, human
Parameters: RFU PODN (11730768_x_at) / Fold change /veh PODN (11730768_x_at) / RFU LINC00158 (11744669_a_at) / Fold change /veh LINC00158 (11744669_a_at) / RFU DUSP10 (11751237_a_at) / Fold change /veh DUSP10 (11751237_a_at) / RFU ID3 (11757404_x_at) / Fold change /veh ID3 (11757404_x_at) / RFU PLEKHG5 (11737974_s_at) / Fold change /veh PLEKHG5 (11737974_s_at) / RFU LRRC4B (11730491_at) / Fold change /veh LRRC4B (11730491_at) / RFU GIMAP4 (11747438_a_at) / Fold change /veh GIMAP4 (11747438_a_at) / RFU KRT8 (11758183_x_at) / Fold change /veh KRT8 (11758183_x_at) / RFU CNN1 (11734310_a_at) / Fold change /veh CNN1 (11734310_a_at) / RFU VPS37D (11726825_at) / Fold change /veh VPS37D (11726825_at) / RFU C10orf10 (11716522_x_at) / Fold change /veh C10orf10 (11716522_x_at) / RFU KIR2DL2 /// KIR2DL4 /// KIR2DL5A /// KIR2DL5B /// KIR2DS1 /// KIR2DS2 /// KIR2DS3 /// KIR2DS4 /// KIR3DL3 /// KIR3DL3 /// KIR3DS1 (11738374_at) / Fold change /veh KIR2DL2 /// KIR2DL4 /// KIR2DL5A /// KIR2DL5B /// KIR2DS1 /// KIR2DS2 /// KIR2DS3 /// KIR2DS4 /// KIR3DL3 /// KIR3DL3 /// KIR3DS1 (11738374_at) / RFU C1QL1 (11718748_at) / Fold change /veh C1QL1 (11718748_at) / RFU TMPRSS4 (11747572_a_at) / Fold change /veh TMPRSS4 (11747572_a_at) / RFU HAMP (11756126_x_at) / Fold change /veh HAMP (11756126_x_at) / RFU RNFT2 (11725882_a_at) / Fold change /veh RNFT2 (11725882_a_at) / RFU NR4A2 (11747474_a_at) / Fold change /veh NR4A2 (11747474_a_at) / RFU ABCC12 (11746883_a_at) / Fold change /veh ABCC12 (11746883_a_at) / RFU TMEM136 (11760407_x_at) / Fold change /veh TMEM136 (11760407_x_at) / RFU CLDN22 /// WWC2 (11732394_at) / Fold change /veh CLDN22 /// WWC2 (11732394_at) / RFU HLA-DPB1 (11760878_x_at) / Fold change /veh HLA-DPB1 (11760878_x_at) / RFU SPINT1 (11716480_a_at) / Fold change /veh SPINT1 (11716480_a_at) / RFU GAP43 (11754022_s_at) / Fold change /veh GAP43 (11754022_s_at) / RFU A4GNT (11735810_at) / Fold change /veh A4GNT (11735810_at) / RFU PRB3 (11715151_x_at) / Fold change /veh PRB3 (11715151_x_at) / RFU TUBB4B (11761932_at) / Fold change /veh TUBB4B (11761932_at) / RFU CAPN14 (11732068_a_at) / Fold change /veh CAPN14 (11732068_a_at) / RFU TMCC2 (11721928_a_at) / Fold change /veh TMCC2 (11721928_a_at) / RFU IRGQ (11745062_a_at) / Fold change /veh IRGQ (11745062_a_at) / RFU FAM174B (11720279_a_at) / Fold change /veh FAM174B (11720279_a_at) / RFU TMPRSS4 (11748680_a_at) / Fold change /veh TMPRSS4 (11748680_a_at) / RFU FAM212B (11763350_a_at) / Fold change /veh FAM212B (11763350_a_at) / RFU PLEKHG5 (11743358_a_at) / Fold change /veh PLEKHG5 (11743358_a_at) / RFU ZSCAN30 (11745921_a_at) / Fold change /veh ZSCAN30 (11745921_a_at) / RFU CMKLR1 (11741424_a_at) / Fold change /veh CMKLR1 (11741424_a_at) / RFU LOC101060620 /// MAPK8IP1 (11723275_at) / Fold change /veh LOC101060620 /// MAPK8IP1 (11723275_at) / RFU SPTSSB (11747773_x_at) / Fold change /veh SPTSSB (11747773_x_at) / RFU PRSS12 (11739890_at) / Fold change /veh PRSS12 (11739890_at) / RFU BIN1 (11741810_x_at) / Fold change /veh BIN1 (11741810_x_at) / RFU WNT11 (11732464_a_at) / Fold change /veh WNT11 (11732464_a_at) / RFU C10orf10 (11716521_a_at) / Fold change /veh C10orf10 (11716521_a_at) / RFU C5orf56 (11738089_at) / Fold change /veh C5orf56 (11738089_at) / RFU CYB561 (11721691_x_at) / Fold change /veh CYB561 (11721691_x_at) / RFU ANKRD19P (11752326_a_at) / Fold change /veh ANKRD19P (11752326_a_at) / RFU OR2T12 /// OR2T33 /// OR2T8 (11738714_s_at) / Fold change /veh OR2T12 /// OR2T33 /// OR2T8 (11738714_s_at) / RFU VCAN (11748164_a_at) / Fold change /veh VCAN (11748164_a_at) / RFU JSRP1 (11732532_at) / Fold change /veh JSRP1 (11732532_at) / RFU KRTAP10-11 (11738290_x_at) / Fold change /veh KRTAP10-11 (11738290_x_at) / RFU MYO3A (11730013_a_at) / Fold change /veh MYO3A (11730013_a_at) / RFU EBF3 (11725865_a_at) / Fold change /veh EBF3 (11725865_a_at) / RFU CAMK2N1 (11719241_x_at) / Fold change /veh CAMK2N1 (11719241_x_at) / RFU C5orf56 (11738088_a_at) / Fold change /veh C5orf56 (11738088_a_at) / RFU OLFML3 (11715873_a_at) / Fold change /veh OLFML3 (11715873_a_at) / RFU LOC100653217 /// NTM (11731650_a_at) / Fold change /veh LOC100653217 /// NTM (11731650_a_at) / RFU MAPK11 (11762145_a_at) / Fold change /veh MAPK11 (11762145_a_at) / RFU FIZ1 (11724087_x_at) / Fold change /veh FIZ1 (11724087_x_at) / RFU OASL (11726364_x_at) / Fold change /veh OASL (11726364_x_at) / RFU SOX15 (11748057_x_at) / Fold change /veh SOX15 (11748057_x_at) / RFU CD79A (11719716_a_at) / Fold change /veh CD79A (11719716_a_at) / RFU HIST1H1D (11736915_at) / Fold change /veh HIST1H1D (11736915_at) / RFU CASKIN2 (11723855_a_at) / Fold change /veh CASKIN2 (11723855_a_at) / RFU LOC730098 (11760151_x_at) / Fold change /veh LOC730098 (11760151_x_at) / RFU OR4N2 (11742367_at) / Fold change /veh OR4N2 (11742367_at) / RFU PRRT2 (11749266_a_at) / Fold change /veh PRRT2 (11749266_a_at) / RFU SNX32 (11753110_a_at) / Fold change /veh SNX32 (11753110_a_at) / RFU CDHR5 (11726645_a_at) / Fold change /veh CDHR5 (11726645_a_at) / RFU RCAN1 (11760418_a_at) / Fold change /veh RCAN1 (11760418_a_at) / RFU FAM167A (11723789_a_at) / Fold change /veh FAM167A (11723789_a_at) / RFU FAM26E (11764081_at) / Fold change /veh FAM26E (11764081_at) / RFU ISYNA1 (11749810_s_at) / Fold change /veh ISYNA1 (11749810_s_at) / RFU ACY1 (11761880_at) / Fold change /veh ACY1 (11761880_at) / RFU 11764098_at / Fold change /veh 11764098_at / RFU SAMD14 (11745864_x_at) / Fold change /veh SAMD14 (11745864_x_at) / RFU NPB (11741838_a_at) / Fold change /veh NPB (11741838_a_at) / RFU TMPRSS6 (11731388_a_at) / Fold change /veh TMPRSS6 (11731388_a_at) / RFU KRTAP10-2 (11738614_at) / Fold change /veh KRTAP10-2 (11738614_at) / RFU ARHGAP8 /// PRR5-ARHGAP8 (11727945_x_at) / Fold change /veh ARHGAP8 /// PRR5-ARHGAP8 (11727945_x_at) / RFU KRTAP5-7 /// NADSYN1 (11734609_at) / Fold change /veh KRTAP5-7 /// NADSYN1 (11734609_at) / RFU RASL12 (11751679_a_at) / Fold change /veh RASL12 (11751679_a_at) / RFU CDKN2B (11736163_a_at) / Fold change /veh CDKN2B (11736163_a_at) / RFU PRF1 (11729649_at) / Fold change /veh PRF1 (11729649_at) / RFU, ZNF638 /// ZNF638-IT1 / Fold change vs veh, ZNF638 /// ZNF638-IT1 / RFU, PANK3 / Fold change vs veh, PANK3 / RFU, SH3YL1 / Fold change vs veh, SH3YL1 / RFU, ZEB2 / Fold change vs veh, ZEB2 / RFU, NRIP1 / Fold change vs veh, NRIP1 / RFU, PTTG1IP / Fold change vs veh, PTTG1IP / RFU, CAPN2 / Fold change vs veh, CAPN2 / RFU, MED14 / Fold change vs veh, MED14 / RFU, SNORA58 / Fold change vs veh, SNORA58 / RFU, C1orf63 / Fold change vs veh, C1orf63 / RFU, LRRFIP1 / Fold change vs veh, LRRFIP1 / RFU, NDUFAF7 / Fold change vs veh, NDUFAF7 / RFU, SLC12A2 / Fold change vs veh, SLC12A2 / RFU, IBTK / Fold change vs veh, IBTK / RFU, ESF1 / Fold change vs veh, ESF1 / Fold change vs veh, TMEM50B / RFU, TAOK1 / Fold change vs veh, TAOK1 / RFU, ACBD3 / Fold change vs veh, ACBD3 / RFU, TMA16 / Fold change vs veh, TMA16 / RFU, RWDD3 / Fold change vs veh, RWDD3 / RFU, BCAT1 / Fold change vs veh, BCAT1 / RFU, EDEM3 / Fold change vs veh, EDEM3 / RFU, TMEM33 / Fold change vs veh, TMEM33 / RFU, WDR75 / Fold change vs veh, WDR75 / RFU, AHCTF1 / Fold change vs veh, AHCTF1 / RFU, TFRC / Fold change vs veh, TFRC / RFU, ZDHHC17 / Fold change vs veh, ZDHHC17 / RFU, NOM1 / Fold change vs veh, NOM1 / RFU, ARL8B / Fold change vs veh, ARL8B / RFU, ZBTB11 / Fold change vs veh, ZBTB11 / RFU, TAMM41 / Fold change vs veh, TAMM41 / RFU, KIAA1704 /// LOC100996395 / Fold change vs veh, KIAA1704 /// LOC100996395 / RFU, ING1 / Fold change vs veh, ING1 / RFU, TRMT61B / Fold change vs veh, TRMT61B / RFU, FUBP3 / Fold change vs veh, FUBP3 / RFU, TP53 / Fold change vs veh, TP53 / RFU, TNKS2 / Fold change vs veh, TNKS2 / RFU, ZFP14 / Fold change vs veh, ZFP14 / RFU, ACTR2 / Fold change vs veh, ACTR2 / RFU, PPP3R1 / Fold change vs veh, PPP3R1 / RFU, PIK3R1 / Fold change vs veh, PIK3R1 / RFU, HNRNPA1 / Fold change vs veh, HNRNPA1 / RFU, RNF170 / Fold change vs veh, RNF170 / RFU, ZNF28 / Fold change vs veh, ZNF28 / RFU, RNGTT / Fold change vs veh, RNGTT / RFU, OGT / Fold change vs veh, OGT / RFU, BRD1 / Fold change vs veh, BRD1 / RFU, MARS / Fold change vs veh, MARS / RFU, ZNF655 / Fold change vs veh, ZNF655 / RFU, FAHD1 / Fold change vs veh, FAHD1 / RFU, BDP1 / Fold change vs veh, BDP1 / RFU, LRRCC1 / Fold change vs veh, LRRCC1 / RFU, ARID1A / Fold change vs veh, ARID1A / RFU, ZNF146 / Fold change vs veh, ZNF146 / RFU, ZNF330 / Fold change vs veh, ZNF330 / RFU, GPN3 / Fold change vs veh, GPN3 / RFU, C9orf123 / Fold change vs veh, C9orf123 / RFU, N4BP2L2 / Fold change vs veh, N4BP2L2 / RFU, ARFIP1 / Fold change vs veh, ARFIP1 / RFU, FAM179B / Fold change vs veh, FAM179B / RFU, BCL10 / Fold change vs veh, BCL10 / RFU, UHRF1BP1L / Fold change vs veh, UHRF1BP1L / RFU, BET1 / Fold change vs veh, BET1 / RFU, CNOT2 / Fold change vs veh, CNOT2 / RFU, ZNF268 / Fold change vs veh, ZNF268 / Fold change vs veh, ZNF507 / RFU, DGCR2 / Fold change vs veh, DGCR2 / RFU, WDSUB1 / Fold change vs veh, WDSUB1 / Fold change vs veh, HSP90B1 /// MIR3652 / RFU, ADSS / Fold change vs veh, ADSS / RFU, GK / Fold change vs veh, GK / RFU, ZNF148 / Fold change vs veh, ZNF148 / RFU, TAF9 / Fold change vs veh, TAF9 / RFU, SLC1A5 / Fold change vs veh, SLC1A5 / RFU, SLMO2 / Fold change vs veh, SLMO2 / RFU, ABCC4 / Fold change vs veh, ABCC4 / RFU, LOC101060439 /// RAP1B / Fold change vs veh, LOC101060439 /// RAP1B / RFU, RFX7 / Fold change vs veh, RFX7 / RFU, GTPBP10 / Fold change vs veh, GTPBP10 / RFU, CNEP1R1 / Fold change vs veh, CNEP1R1 / RFU, BIVM-ERCC5 /// ERCC5 / Fold change vs veh, BIVM-ERCC5 /// ERCC5 / RFU, ILF3 / Fold change vs veh, ILF3 / RFU 11762660_at / Fold change /veh 11762660_at / RFU VCAN (11757783_s_at) / Fold change /veh VCAN (11757783_s_at) / RFU DDX43 (11728927_at) / Fold change /veh DDX43 (11728927_at) / RFU KRT8 (11758188_x_at) / Fold change /veh KRT8 (11758188_x_at) / RFU NKD1 (11759106_at) / Fold change /veh NKD1 (11759106_at) / RFU SRD5A1 (11742802_a_at) / Fold change /veh SRD5A1 (11742802_a_at) / RFU TPSAB1 /// TPSB2 (11721975_s_at) / Fold change /veh TPSAB1 /// TPSB2 (11721975_s_at) / RFU GSTM3 (11746129_a_at) / Fold change /veh GSTM3 (11746129_a_at) / RFU IL23R (11737362_x_at) / Fold change /veh IL23R (11737362_x_at) / RFU TMEM51 (11727254_a_at) / Fold change /veh TMEM51 (11727254_a_at) / RFU PIWIL2 (11732686_x_at) / Fold change /veh PIWIL2 (11732686_x_at) / RFU ORM1 (11744905_x_at) / Fold change /veh ORM1 (11744905_x_at) / RFU CCDC152 (11743942_at) / Fold change /veh CCDC152 (11743942_at) / RFU ECM1 (11717891_a_at) / Fold change /veh ECM1 (11717891_a_at) / RFU IL23R (11748794_a_at) / Fold change /veh IL23R (11748794_a_at) / RFU TNFAIP8L3 (11732012_x_at) / Fold change /veh TNFAIP8L3 (11732012_x_at) / RFU MBOAT4 (11741988_at) / Fold change /veh MBOAT4 (11741988_at) / RFU 11764193_at / Fold change /veh 11764193_at / RFU TMEM53 (11763286_at) / Fold change /veh TMEM53 (11763286_at) / RFU MAGEB2 (11727129_at) / Fold change /veh MAGEB2 (11727129_at) / RFU TMEM200A (11744735_a_at) / Fold change /veh TMEM200A (11744735_a_at) / RFU CCDC152 (11751479_a_at) / Fold change /veh CCDC152 (11751479_a_at) / RFU FAM211A (11726209_a_at) / Fold change /veh FAM211A (11726209_a_at) / RFU RGS16 (11746705_a_at) / Fold change /veh RGS16 (11746705_a_at) / RFU VCAN (11755009_s_at) / Fold change /veh VCAN (11755009_s_at) / RFU RHOB (11743442_s_at) / Fold change /veh RHOB (11743442_s_at) / RFU RGS16 (11720943_a_at) / Fold change /veh RGS16 (11720943_a_at) / RFU RGS16 (11720944_at) / Fold change /veh RGS16 (11720944_at) / RFU, VPS4B / Fold change vs veh, VPS4B / RFU, CREB1 / Fold change vs veh, CREB1 / RFU, DNAJC13 / Fold change vs veh, DNAJC13 / RFU, GNAQ / Fold change vs veh, GNAQ / RFU, CDK5R1 / Fold change vs veh, CDK5R1 / RFU, ZRANB3 / Fold change vs veh, ZRANB3 / RFU, CUL4A / Fold change vs veh, CUL4A / RFU, CCNY / Fold change vs veh, CCNY / RFU, UFL1 / Fold change vs veh, UFL1 / RFU, COG3 / Fold change vs veh, COG3 / RFU, DIAPH2 / Fold change vs veh, DIAPH2 / RFU, SKA2 / Fold change vs veh, SKA2 / RFU, AFF3 / Fold change vs veh, AFF3 / RFU, LMF1 / Fold change vs veh, LMF1 / RFU, IPO11 / Fold change vs veh, IPO11 / RFU, DFFB / Fold change vs veh, DFFB / RFU, FOXP1 / Fold change vs veh, FOXP1 / RFU, CARD8 / Fold change vs veh, CARD8 / RFU, STRN3 / Fold change vs veh, STRN3 / RFU, ADK / Fold change vs veh, ADK / RFU, RASSF2 / Fold change vs veh, RASSF2 / RFU, WIPF1 / Fold change vs veh, WIPF1 / RFU, LARP1B / Fold change vs veh, LARP1B / RFU, RASA1 / Fold change vs veh, RASA1 / RFU, RB1 / Fold change vs veh, RB1 / RFU, PPFIA1 / Fold change vs veh, PPFIA1 / RFU, MAT2A / Fold change vs veh, MAT2A / RFU, CCT5 / Fold change vs veh, CCT5 / RFU, WDR92 / Fold change vs veh, WDR92 / RFU, CUX1 / Fold change vs veh, CUX1 / RFU, TTC7A / Fold change vs veh, TTC7A / RFU, TMEM135 / Fold change vs veh, TMEM135 / RFU, DEPTOR / Fold change vs veh, DEPTOR / RFU, CPM / Fold change vs veh, CPM / RFU, DNAJB6 / Fold change vs veh, DNAJB6 / RFU, CACNA2D3 / Fold change vs veh, CACNA2D3 / RFU, DTX4 / Fold change vs veh, DTX4 / RFU, TFCP2 / Fold change vs veh, TFCP2 / RFU, GMCL1 /// GMCL1P1 / Fold change vs veh, GMCL1 /// GMCL1P1 / RFU, AEBP2 / Fold change vs veh, AEBP2 / RFU, SNHG1 /// SNORD22 /// SNORD25 /// SNORD26 /// SNORD27 /// SNORD28 /// SNORD29 /// SNORD31 / Fold change vs veh, SNHG1 /// SNORD22 /// SNORD25 /// SNORD26 /// SNORD27 /// SNORD28 /// SNORD29 /// SNORD31 / Fold change (Aza/veh), C12orf56 (ProbeSet 11735607_a_at) / Fold change (ACY-1035/veh), C12orf56 (ProbeSet 11735607_a_at) / Fold change (Aza/veh), FGFR1OP (ProbeSet 11751329_s_at) / Fold change (ACY-1035/veh), FGFR1OP (ProbeSet 11751329_s_at) / Fold change (Aza/veh), VPS36 (ProbeSet 11739960_a_at) / Fold change (ACY-1035/veh), VPS36 (ProbeSet 11739960_a_at) / RFU SYPL1 (11715823_x_at) / Fold change /veh SYPL1 (11715823_x_at) / RFU IGFBP7 (11715501_s_at) / Fold change /veh IGFBP7 (11715501_s_at) / RFU REEP3 (11722064_at) / Fold change /veh REEP3 (11722064_at) / RFU IGLL1 (11728026_x_at) / Fold change /veh IGLL1 (11728026_x_at): dose or concentration left out as unconfirmed
Details: ProbeSet 11741199_a_at; LIST B

Nc1ncn([C@@H]2O[C@H](CO)[C@@H](O)[C@H]2O)c(=O)n1 [azacitidine]
Fold change vs veh, LRRCC1: 0.97
